From patent publication US8877946B2, “Benzylidene-indolinone compounds and their medical use” (National University of Singapore, priority 2011, dated 2014) come the findings set out here.

Series [1] in a line: Aqueous solubility on Multiscreen Solubility filter plates. The series is classed as physicochemical. The note with it: aqueous solution on Multiscreen Solubility filter plates, aqueous buffer, kinetic from dmso stock, mean of 3 determinations. On the procedure: (§1) Solubility and PAMPA permeability (Pe) are important physicochemical indicators of drug-like character. Determination of aqueous solubility was carried out on Multiscreen® Solubility filter plates (Millipore-MSSLBPC10) from Millipore Corporation (MA, USA). The protocol (PC2445EN00, Millipore Corporation) was followed. Pe determinations were carried out on MultiScreen-IP PAMPA assay (donor) plates (MAIPNTR10) and MultiScreen Receiver Plates (MATRNPS50) from Millipore Corporation (USA) with 1% lecithin (L-α-phosphatidylcholine from lyophilized powder of egg yolk, Sigma Aldrich, USA) in dodecane (ReagentPlus®, Sigma Aldrich, USA) as lipid barrier.

The test system of a further series is Hep G2. Put plainly: MTT antiproliferative assay on Hep G2 cells. Conditions: Homo sapiens, HepG2, 72 h. The series is classed as cell-based. The source says: (§2) MTT was purchased from DUCHEFA Biochemie ([…]). Sunitinib, and sodium dodecyl sulfate, bovine serum albuminwere obtained from Sigma Aldrich (Singapore). Sorafenib was purchase from Ontario Chem. Fetal bovine serum (FBS) was obtained from Invitrogen. Human hepatocellular carcinoma cells (HuH-7 and Hep G2), and human diploid fibroblast strain (IMR 90). HuH7 was obtained as gifts from Dr Ho Han Kiat, Department of Pharmacy, NUS. IMR90 and Hep G2 were purchased from American Type Culture Collection (ATCC). HuH-7 cells were cultured in DMEM (Dulbecco's Modified Eagle Medium, high glucose) with 10% v/v fetal bovine serum (FBS), 100 mg/L penicillin G and 100 mg/L streptomycin. IMR 90 cell were cultured in EMEM (Eagle's Minimum Essential Medium), with 10% v/v FBS and 100 mg/L penicillin G and 100 mg/L streptomycin. The cells were sub-cultured when HuH7 or Hep G2 reached a density of 70-80×10^5 cell/T75 flask, and IMR 90 reached 20×10^5 cell/T75 flask. Cells were used within 2-10 passages for viability experiments.
(§3) The anti-proliferative activity of the test compounds were determined by the MTT assay. An aliquot (200 μL, 3×10^4 cells/mL for HuH7, 3.75×10^4 cells/mL for Hep G2, and 2×10^4 cells/mL for IMR 90) of medium was added to each well of the microtitre plate. […] The existing medium was removed from each well and replaced by fresh medium (200 μL) containing a known concentration of test compound. The final concentration of DMSO in each well was maintained at 0.5% v/v. (1% v/v was also utilized if the compounds were not soluble) The test compounds were incubated with the cells for another 72 h at 37 deg C., 5% CO2. The medium was then removed from the well and replaced with FBS free medium (200 μL) and MTT (50 μL of 2 mg/mL solution in phosphate buffer saline, pH 7.4). The phosphate buffer saline comprises 10 mM of potassium phosphate and 137 mM sodium chloride. After incubation (3 h) at 37 deg C., 5% CO2, the supernatant was removed and a solution of 200 μL DMSO and 25 μL Sorenson buffer (0.1 M glycine, 0.1 M sodium chloride, adjusted to pH 10.5 with 0.1 M sodium hydroxide) was added to dissolve the formazan crystals in each well. Vehicle control were cells grown in 1% v/v DMSO/Medium for 72 h, 37 deg C., 5% CO2 while blank controls were wells that contained only 200 μL DMSO and 25 μL Sorenson buffer. Absorbances were measured at 570 nm on a microplate reader (Tecan, Infinite 200). The viability of cells at a given concentration of test compound was determined from the expression:
(§4) [formula] where abs_compound=absorbance of wells containing cells and test compound, abs_vehicle (Not the same as above. Change to abs_vehicle)=absorbance of vehicle control and abs_blank=absorbance of blank control.
(§5) Each concentration of test compound was evaluated at least 3 times on separate occasions, and two different stock solution were used. The IC50 value (concentration that inhibited 50% of cell growth) was determined from the sigmoidal curve obtained by plotting percentage viability versus logarithmic concentration of test compound using GraphPad Prism 5 (San Diego, USA).
(Tetrazolium dyes change colour on reduction, which living cells bring about.)

A further series relates to HuH7 cells. Put plainly: MTT antiproliferative (growth inhibition) assay on HuH7 cells. The note with it: Homo sapiens, Huh-7, MTT. It is filed as cell-based, human. The procedure, abridged:
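Cells were exposed to compound for 72 h at 37° C, 5% CO2, with 0.5% v/v DMSO (1% if poorly soluble), then given MTT for 3 h. Formazan was dissolved in DMSO/Sorenson buffer and absorbance read at 570 nm; IC50 from sigmoidal fits of % viability versus log concentration.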

A further series relates to AFP mRNA. Put plainly: Determination of AFP mRNA levels by quantitative real-time PCR in HuH7 cells. The note with it: 10 μM, 24 h, FIG. 1. It is filed as cell-based, human. An excerpt:
The primer sequences were: […] reverse); [NT] (Human GADPH forward); [NT] (Human GADPH reverse).
On the technique in general: Quantitative PCR measures a nucleic acid by following its amplification.

The next series relates to CYP1A1. Put plainly: EROD assay, induction of CYP1A1 activity in HuH7 cells. It is filed as cell-based, human. Conditions: broad range of concentrations spanning growth inhibitory concentrations, FIG. 2. The source says:
The induction of CYP1A1 activity was monitored by the 7-ethoxyresorufin O-deethylase (EROD) assay. EROD is a CYP1A1 enzyme and induction of its activity would result in the formation of more resorufin, a fluorescent compound. By monitoring resorufin levels in cells that are exposed to test compound and comparing the levels with those in untreated cells, it is possible to identify compounds that induce EROD activity.
Readings were taken at λexcitation of 530 nm and λemission of 590 nm on a fluorometer (Name the plate reader). Background fluorescence of the test compound was determined at the same wavelengths to take into account its contribution to the observed readings. Readings of “blank” wells that contained only media and “control” wells with only HuH7 cells in media (with 1% DMSO) were also determined. β-napthoflavone (BNF), a known inducer of CYP1A1 activity (give ref) was used as a positive control. The extent to which EROD activity was induced is given by the expression: Degree of induction=(FCells+Test Compound−FBlank)/(FControl−FBlank)
Where Fcells+test compound=fluorescence of wells containing treated cells; FBlank=fluorescence of well containing media only; FControl=fluorescence readings of wells containing untreated cells. The test compounds were not fluorescent at the excitation and emission wavelengths used in this assay. Two separate determinations were made for each concentration of test compound.

For a further series, the system named is IMR 90. Put plainly: MTT antiproliferative assay on non-malignant IMR 90 fibroblasts. The series is classed as cell-based. The note with it: non-malignant human lung fibroblast IMR 90, MTT, 72 h.
Text: as §2, §3, §4, §5

For the next series, the system named is phospho-STAT3 (Tyr 705). Put plainly: Detection of phosphorylated STAT3 by immunoblot in HepG2. The series is classed as cell-based, human. The note with it: FIG. 3. The method, then: Rabbit polyclonal antibodies to STAT3 was obtained from Santa Cruz Biotechnology (Santa Cruz, Calif.), and rabbit monoclonal antibodies against phospho-STAT3 (Tyr 705) were purchased from Cell Signaling Technology (Beverly, Mass.).
For detection of phopho-STAT 3 and STAT 3, treated whole-cell extracts were lysed in lysis buffer (20 mM Tris (pH 7.4), 250 mM NaCl, 2 mM EDTA (pH 8.0), 0.1% Triton X-100, 0.01 mg/ml aprotinin, 0.005 mg/ml leupeptin, 0.4 mM PMSF, and 4 mM NaVO4). Lysates were then spun at 14,000 rpm for 10 min to remove insoluble material and resolved on a 7.5% SDS gel. After electrophoresis, the proteins were electrotransferred to a nitrocellulose membrane, blocked with 5% nonfat milk, and probed with anti-phospho-STAT 3 and anti-STAT 3 antibodies (1:1,000) overnight at 4° C. The blot was washed, exposed to HRP-conjugated secondary antibodies for 1 hr, and finally examined by chemiluminescence (ECL; GE Healthcare, Little Chalfont, Buckinghamshire, UK).

A short description of the next series: PAMPA permeability (Pe). The series is classed as physicochemical. Conditions: 1% lecithin in dodecane, mean of 3 determinations. The method, then:
as §1
(In PAMPA a lipid-coated filter parts donor from acceptor wells.)

[2] abbreviates: 72 h (Table 9), read-out: IC50 (μM) HuH7.
The mark [3] stands for this setting: 72 h incubation, mean and SD of 3 or more independent determinations (Tables 1-8), read-out: IC 50.

Molecules are shown by their SMILES. Values after ≈ are worked out from the molar mass of the structure shown. Where two headings read alike, the source gives them in different places.

As a reminder, the solubility is the concentration that dissolves in the medium under given conditions. Low readings indicate little dissolved substance, high ones much dissolved substance. Regarding `CNS(=O)(=O)c1cccc(/C=C2/C(=O)Nc3cc(Cl)ccc32)c1` [Compound 1-18, (E)-3-(6-Chloro-2-oxo-1,2-dihydro-indol-3-ylidenemethyl)-N-methyl-benzenesulfonamide], the concentration in solution in series [1] (pH 7.4, agitation time 3 h) (solubility at 3 h) was 8.85 µM (≈ 3.09 µg/mL). In series [1] (pH 7.4, agitation time 24 h), this compound had a solubility at 24 h of 2.28 µM (≈ 0.795 µg/mL). The IC50 worked out at 3.99 ± 0.43 µM with Hep G2, 0.54 ± 0.06 µM with HuH7 cells (setting [2]), 0.54 ± 0.06 µM in the series on HuH7 cells (setting [3]) and 2.1 µM with IMR 90. In the series with AFP mRNA, the “effect on AFP mRNA levels” value is “no significant change in AFP mRNA levels”. Also, in the series on CYP1A1, the “induction of CYP450 (CYP1A1, EROD) activity” value was “did not induce CYP450 activity”. In the series with phospho-STAT3 (Tyr 705), the “effect on p-STAT3 levels (constitutive STAT3 activation)” value is listed as “reduced p-STAT3 levels”. Also, the “Pe (×10^−6 cm/s)” value is 18.3 ×10^−6 cm/s in “PAMPA permeability (Pe)” (pH 7.4, 6 h) and 12.3 ×10^−6 cm/s in “PAMPA permeability (Pe)” (pH 7.4, 16 h).

For `O=C1Nc2ccc(F)c(F)c2/C1=C/c1cccc(C(F)(F)F)c1` [Compound 6-6, (Z)-4,5-Difluoro-3-(3-trifluoromethyl-benzylidene)-1,3-dihydro-indol-2-one], the IC50 in the series on Hep G2 amounted to 0.96 ± 0.11 µM; in the series with HuH7 cells (setting [2]), 0.54 ± 0.07 µM; in the series on HuH7 cells (setting [3]), 0.54 ± 0.07 µM; in the series on IMR 90, 8.1 ± 0.73 µM. Besides, the “effect on AFP mRNA levels” value in the series with AFP mRNA was “reduced levels to almost the same extent as 1-10”. For the same compound, in the series on CYP1A1, the “induction of CYP450 (CYP1A1, EROD) activity” value was “did not induce CYP450 activity”. Besides, the “effect on p-STAT3 levels (constitutive STAT3 activation)” value with phospho-STAT3 (Tyr 705) is “did not”.
